Test results published in PubChem BioAssay AID1963856 (Molecular Pharmacology Branch, DTP, NCI, 2024).

Tested on: LG0567-F671-PDC KRAS tumor spheroid viability
Test: Anticancer human tumor LG0567-F671-PDC patient-derived lung adenocarcinoma cell line growth inhibition [KRAS2]
Details: spheroids with HUVEC and MSC; for IC50: curve of first compound; for viability, T/C: stronger effect = lower value
Procedure, shortened: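 Combination screen of spheroid viability in tumor-cell co-cultures with endothelial (HUVEC) and mesenchymal stem cell stroma. Each agent was tested in half-log dilutions, topping at clinical Cmax or at 10 microM without a known Cmax.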

[1] = second compound 0.1 µM, first compound 0.01 µM
[2] = second compound 0.1 µM, first compound 0.0316 µM
[3] = second compound 0.1 µM, first compound 0.1 µM
[4] = second compound 0.1 µM, first compound 0.316 µM
[5] = second compound 0.1 µM, first compound 1 µM
[6] = second compound 0.1 µM, first compound 3.16 µM
[7] = second compound 0.316 µM, first compound 0.01 µM
[8] = second compound 0.316 µM, first compound 0.0316 µM
[9] = second compound 0.316 µM, first compound 0.1 µM
[10] = second compound 0.316 µM, first compound 0.316 µM
[11] = second compound 0.316 µM, first compound 1 µM
[12] = second compound 0.316 µM, first compound 3.16 µM
[13] = second compound 3.16 µM, first compound 0.01 µM
[14] = second compound 3.16 µM, first compound 0.0316 µM
[15] = second compound 3.16 µM, first compound 0.1 µM
[16] = second compound 3.16 µM, first compound 0.316 µM
[17] = second compound 3.16 µM, first compound 1 µM
[18] = second compound 3.16 µM, first compound 3.16 µM
[19] = second compound 10 µM, first compound 0.0316 µM
[20] = second compound 10 µM, first compound 0.1 µM
[21] = second compound 10 µM, first compound 0.316 µM
[22] = second compound 10 µM, first compound 1 µM
[23] = second compound 10 µM, first compound 3.16 µM
[24] = second compound 0.1 µM, first compound 10 µM
[25] = second compound 0.316 µM, first compound 10 µM
[26] = second compound 1 µM, first compound 0.0316 µM
[27] = second compound 1 µM, first compound 0.1 µM
[28] = second compound 1 µM, first compound 0.316 µM
[29] = second compound 1 µM, first compound 1 µM
[30] = second compound 1 µM, first compound 3.16 µM
[31] = second compound 1 µM, first compound 10 µM
[32] = second compound 3.16 µM, first compound 10 µM
[33] = second compound 10 µM, first compound 10 µM
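Further: drug exposure lasted seven days after spheroids formed for three days.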
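Wherever viability, T/C is given: 100% = DMSO vehicle control viability.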

Row | Compound | IC50 (second compound 0.1 µM) [µM] | IC50 (second compound 0.316 µM) [µM] | IC50 (second compound 3.16 µM) [µM] | IC50 (second compound 10 µM) [µM] | viability, T/C [2] [%] | viability, T/C [3] [%] | viability, T/C [4] [%] | viability, T/C [5] [%] | viability, T/C [6] [%] | viability, T/C [8] [%] | viability, T/C [9] [%] | viability, T/C [10] [%] | viability, T/C [11] [%] | viability, T/C [12] [%] | viability, T/C [14] [%] | viability, T/C [15] [%] | viability, T/C [16] [%] | viability, T/C [17] [%] | viability, T/C [18] [%] | viability, T/C [19] [%] | other results
1 | CC(=O)OC12COC1CC(O)C1(C)C(=O)C(O)C3=C(C)C(OC(=O)C(O)C(NC(=O)OC(C)(C)C)c4ccccc4)CC(O)(C(OC(=O)c4ccccc4)C21)C3(C)C (stereo not drawn) + CC1OCC2(CCN(c3cnc(Sc4ccnc(N)c4Cl)c(N)n3)CC2)C1N | < 0.01 | < 0.01 | < 0.01 | < 0.01 | 39.4 | 38.7 | 40.4 | 48 | 38.6 | 26.7 | 24.9 | 22.1 | 28.1 | 20.6 | 12.3 | 10.3 | 10.6 | 11.9 | 10.3 | 9.36 | viability, T/C [1]: 41.6%; viability, T/C [7]: 26.7%; viability, T/C [13]: 14.7%; viability, T/C (second compound 10 µM, first compound 0.01 µM): 14.9%; viability, T/C [20]: 11.2%; viability, T/C [21]: 9.93%; viability, T/C [22]: 12.9%; viability, T/C [23]: 9.85%
2 | CC1(C)CCC(CN2CCN(c3ccc(C(=O)NS(=O)(=O)c4ccc(NCC5CCOCC5)c([N+](=O)[O-])c4)c(Oc4cnc5[nH]ccc5c4)c3)CC2)=C(c2ccc(Cl)cc2)C1 + C=CC(=O)N1CCN(c2nc(=O)n(-c3c(C)ccnc3C(C)C)c3nc(-c4c(O)cccc4F)c(F)cc23)C(C)C1 | < 0.0316 | < 0.0316 | < 0.0316 | < 0.0316 | 31.9 | 28.1 | 26.2 | 25.7 | 11.7 | 27.2 | 28.8 | 25.4 | 23.1 | 16.5 | 29 | 28.6 | 27.6 | 27.1 | 11.1 | 25.8 | IC50 (second compound 1 µM): < 0.0316 µM; viability, T/C [24]: 2.83%; viability, T/C [25]: 6.09%; viability, T/C [26]: 27.2%; viability, T/C [27]: 28.5%; viability, T/C [28]: 25.9%; viability, T/C [29]: 22.8%; viability, T/C [30]: 11.2%; viability, T/C [31]: 3.32%; viability, T/C [32]: 2.68%; viability, T/C [20]: 26.3%; viability, T/C [21]: 24.9%; viability, T/C [22]: 25.6%; viability, T/C [23]: 5.1%; viability, T/C [33]: 6.11%
3 | CC(=O)OC12COC1CC(O)C1(C)C(=O)C(O)C3=C(C)C(OC(=O)C(O)C(NC(=O)OC(C)(C)C)c4ccccc4)CC(O)(C(OC(=O)c4ccccc4)C21)C3(C)C (stereo not drawn) + C=CC(=O)N1CCN(c2nc(OCC3CCCN3C)nc3c2CCN(c2cccc4cccc(C)c24)C3)CC1CC#N | < 0.01 | < 0.01 | < 0.01 | – | 13.2 | 16.1 | 16.5 | 19.4 | 15.8 | 13.9 | 15.7 | 13.8 | 16.9 | 14.7 | 37.1 | 25.7 | 36.4 | 33.6 | 36.6 | – | IC50 (second compound 0.0316 µM): < 0.01 µM; IC50 (second compound 1 µM): < 0.01 µM; viability, T/C (second compound 0.0316 µM, first compound 0.01 µM): 18.9%; viability, T/C (second compound 0.0316 µM, first compound 0.0316 µM): 16.2%; viability, T/C (second compound 0.0316 µM, first compound 0.1 µM): 18.9%; viability, T/C (second compound 0.0316 µM, first compound 0.316 µM): 21.9%; viability, T/C (second compound 0.0316 µM, first compound 1 µM): 22.9%; viability, T/C (second compound 0.0316 µM, first compound 3.16 µM): 19.9%; viability, T/C [1]: 14.5%; viability, T/C [7]: 15.8%; viability, T/C (second compound 1 µM, first compound 0.01 µM): 16.6%; viability, T/C [26]: 15.4%; viability, T/C [27]: 15.9%; viability, T/C [28]: 15.3%; viability, T/C [29]: 16.8%; viability, T/C [30]: 14.4%; viability, T/C [13]: 40.1%
4 | COC(=O)c1ccc2c(C(=Nc3ccc(N(C)C(=O)CN4CCN(C)CC4)cc3)c3ccccc3)c(O)[nH]c2c1 + CNCc1ccccc1-c1csc(C(C)Nc2nc(C)nc3cc(OC)c(OC)cc23)c1 | > 10 | < 0.0316 | < 0.0316 | < 0.0316 | 66.3 | 57.4 | 57.2 | 59.2 | 65.4 | 50.6 | 45.5 | 39.7 | 53.6 | 29.4 | 1.05 | 2.43 | 0.68 | 0.71 | 0.64 | 1.55 | IC50 (second compound 1 µM): 0.426 µM; viability, T/C [24]: 56.4%; viability, T/C [25]: 41.7%; viability, T/C [26]: 52.5%; viability, T/C [27]: 48.5%; viability, T/C [28]: 52.8%; viability, T/C [29]: 46.9%; viability, T/C [30]: 2.38%; viability, T/C [31]: 3.49%; viability, T/C [32]: 0.52%; viability, T/C [20]: 1.48%; viability, T/C [21]: 2.71%; viability, T/C [22]: 2.27%; viability, T/C [23]: 0.69%; viability, T/C [33]: 0.4%
